Test results published in publication PMC4519045 (PLoS ONE, 2015).
“Also recorded” adds a separate entry of the source.

Legend:
P800 plasma = conditions: human, RT (25 ± 1°C), up to 96 hours
[1] = conventional serum sample; conditions: human, RT (25 ± 1°C), up to 96 hours
EDTA plasma = conditions: human, RT (25 ± 1°C), up to 96 hours
heparin-plasma = conditions: human, RT (25 ± 1°C)
citrate-plasma = conditions: human, RT (25 ± 1°C)
purified DPP-IV enzyme = test: 50 mM HEPES buffer (pH7.5); conditions: 37°C, up to 48 hours
[2] = in vivo circulation; cited from earlier work

For HSQGTFTSDYSKYLDSRRAQDFVQWLMNTKRNKNNIA, the not cleaved (P800 plasma) was “fragments not detectable during 3-day incubation; full-length OXM stabilized for more than three days”.
For HA/EGTFTSDVSSYLEGQAAKEFIAWLVKGR-NH2, the cleaved bond [1] was “A8-E9, major, 30 minutes”, the not cleaved [1] was “no G36A-1C” and the cleaved bond (EDTA plasma) was “A8-E9, major, 30 minutes”. The cleaved bond (heparin-plasma) was “A8-E9, major”, the cleaved bond (P800 plasma) was “A8-E9, minor, after 3-day incubation” and the cleaved bond (citrate-plasma) was “A8-E9, major, 30 minutes”.
In the case of HS/QGTFTSDYSKYLDSRRAQDFVQWLMNTKRNRNNIA, the cleaved bond (purified DPP-IV enzyme) is reported as “S2-Q3, first_seen, 24 hours; also recorded: G4-T5, 48 h”.
In the case of “YA/EGTFISDYSIAMDKIHQQDFVNWLLAQKGKKNDWKHNITQ”, the cleaved bond [1] is reported as “A2-E3, major”, the cleaved bond (EDTA plasma) is reported as “A2-E3, major, two hours” and the not cleaved (P800 plasma) is reported as “without any GIP degradation fragments detectable during 4-day incubation at RT; t½ > 96 hours”.
In the case of glucagon-like peptide 1 [GLP-1], the half-life in circulation [2] is listed as “approximately 2 minutes”.
In the case of HA/EGTFTSDVSSYLEGQAAKEFIAWLVKGRG, the cleaved bond (EDTA plasma) is reported as “A8-E9, major, 1h”, the cleaved bond (heparin-plasma) is reported as “A8-E9, major” and the cleaved bond (P800 plasma) is reported as “A8-E9, minor, after 3-day incubation”. The cleaved bond (citrate-plasma) was “A8-E9, major”.
In the case of `CC[C@H](C)[C@H](NC(=O)[C@H](CO)NC(=O)[C@H](Cc1ccc(O)cc1)NC(=O)[C@H](CC(=O)O)NC(=O)[C@H](CO)NC(=O)[C@@H](NC(=O)[C@H](Cc1ccccc1)NC(=O)[C@@H](NC(=O)CNC(=O)[C@H](CCC(=O)O)NC(=O)[C@H](C)NC(=O)[C@@H](N)Cc1ccc(O)cc1)[C@@H](C)O)[C@@H](C)CC)C(=O)N[C@@H](C)C(=O)N[C@@H](CCSC)C(=O)N[C@@H](CC(=O)O)C(=O)N[C@@H](CCCCN)C(=O)N[C@H](C(=O)N[C@@H](Cc1c[nH]cn1)C(=O)N[C@@H](CCC(N)=O)C(=O)N[C@@H](CCC(N)=O)C(=O)N[C@@H](CC(=O)O)C(=O)N[C@@H](Cc1ccccc1)C(=O)N[C@H](C(=O)N[C@@H](CC(N)=O)C(=O)N[C@@H](Cc1c[nH]c2ccccc12)C(=O)N[C@@H](CC(C)C)C(=O)N[C@@H](CC(C)C)C(=O)N[C@@H](C)C(=O)N[C@@H](CCC(N)=O)C(=O)N[C@@H](CCCCN)C(=O)NCC(=O)N[C@@H](CCCCN)C(=O)N[C@@H](CCCCN)C(=O)N[C@@H](CC(N)=O)C(=O)N[C@@H](CC(=O)O)C(=O)N[C@@H](Cc1c[nH]c2ccccc12)C(=O)N[C@@H](CCCCN)C(=O)N[C@@H](Cc1c[nH]cn1)C(=O)N[C@@H](CC(N)=O)C(=O)N[C@H](C(=O)N[C@H](C(=O)N[C@@H](CCC(N)=O)C(=O)O)[C@@H](C)O)[C@@H](C)CC)C(C)C)[C@@H](C)CC` [GIP(1–42), glucose-dependent insulinotropic polypeptide], the half-life in circulation [2] is listed as roughly 5 min.
With HA/EGTFTSDVSSYLEGQAAKEFIAWLVKGR-OH the cleaved bond [1] was “A8-E9, 30 minutes; also recorded: G35-R36, 30 minutes” and the cleaved bond (EDTA plasma) was “A8-E9, 30 minutes”.
